According to ChEMBL document CHEMBL1201862, “PubChem BioAssay data set” (2004):
Activity calls are given as the source filed them. For most assays here, no stated cut-off is given here; in the data, actives have a measured EC50 and inactives only a lower limit.

Assays:
[1] = target: T1, RNA-binding protein pos-1 (Caenorhabditis elegans, UniProt G5EF15); experiment: disruptors of C. elegans POS-1 RNA interaction – biochemical, fluorescence polarization, dose response (AID 1964);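 further: purified POS-1 fused to maltose binding protein made in E. coli; potency of compounds blocking POS-1 binding to fluorescent RNA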
T1 sequence (G5EF15 whole entry): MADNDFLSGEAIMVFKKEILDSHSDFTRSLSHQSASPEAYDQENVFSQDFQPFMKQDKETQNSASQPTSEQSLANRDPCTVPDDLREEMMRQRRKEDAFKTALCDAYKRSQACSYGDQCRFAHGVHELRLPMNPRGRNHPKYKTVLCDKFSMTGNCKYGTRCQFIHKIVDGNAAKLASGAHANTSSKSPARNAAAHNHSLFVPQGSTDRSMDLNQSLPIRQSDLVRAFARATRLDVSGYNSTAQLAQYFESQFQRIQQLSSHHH

[2] = target: T2, Zinc finger protein mex-5 (Caenorhabditis elegans, UniProt Q9XUB2); experiment: potency of MEX-5 RNA-binding blockers – biochemical, C. elegans, fluorescence polarization, dose response (AID 1960)
T2 sequence (Q9XUB2 whole entry): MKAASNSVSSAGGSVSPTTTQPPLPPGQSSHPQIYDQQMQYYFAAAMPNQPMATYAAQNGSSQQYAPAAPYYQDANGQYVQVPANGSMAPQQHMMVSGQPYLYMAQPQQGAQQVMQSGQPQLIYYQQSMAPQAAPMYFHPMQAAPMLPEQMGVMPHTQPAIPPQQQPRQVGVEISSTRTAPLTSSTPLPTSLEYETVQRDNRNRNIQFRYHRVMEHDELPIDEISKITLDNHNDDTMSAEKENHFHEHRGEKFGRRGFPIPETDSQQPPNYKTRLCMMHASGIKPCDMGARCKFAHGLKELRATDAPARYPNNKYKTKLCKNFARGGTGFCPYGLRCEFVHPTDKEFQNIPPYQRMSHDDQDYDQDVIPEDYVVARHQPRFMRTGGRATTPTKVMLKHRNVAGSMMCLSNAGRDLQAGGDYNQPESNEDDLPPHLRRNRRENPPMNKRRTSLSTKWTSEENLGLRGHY

[3] = target: T3, Corticotropin-releasing factor receptor 2/Corticotropin-releasing factor-binding protein (Homo sapiens, UniProt P24387+Q13324); experiment: Dose Response confirmation of uHTS hits for small molecule antagonists of the CRF-binding protein and CRF-R2 receptor complex.; assay type: functional; conditions: read-out: IC50_Mean
T3 sequence (Q13324 whole entry): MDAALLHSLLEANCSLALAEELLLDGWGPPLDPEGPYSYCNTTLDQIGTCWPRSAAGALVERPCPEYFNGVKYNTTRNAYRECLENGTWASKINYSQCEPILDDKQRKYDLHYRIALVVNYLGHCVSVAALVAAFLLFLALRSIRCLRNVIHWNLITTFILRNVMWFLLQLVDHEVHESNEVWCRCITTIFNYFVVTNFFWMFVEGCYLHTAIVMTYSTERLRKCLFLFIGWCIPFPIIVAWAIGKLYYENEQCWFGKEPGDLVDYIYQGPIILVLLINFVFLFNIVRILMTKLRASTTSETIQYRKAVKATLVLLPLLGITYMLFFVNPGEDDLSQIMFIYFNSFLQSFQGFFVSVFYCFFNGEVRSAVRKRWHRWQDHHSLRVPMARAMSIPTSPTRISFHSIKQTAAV
T3 sequence (P24387 whole entry): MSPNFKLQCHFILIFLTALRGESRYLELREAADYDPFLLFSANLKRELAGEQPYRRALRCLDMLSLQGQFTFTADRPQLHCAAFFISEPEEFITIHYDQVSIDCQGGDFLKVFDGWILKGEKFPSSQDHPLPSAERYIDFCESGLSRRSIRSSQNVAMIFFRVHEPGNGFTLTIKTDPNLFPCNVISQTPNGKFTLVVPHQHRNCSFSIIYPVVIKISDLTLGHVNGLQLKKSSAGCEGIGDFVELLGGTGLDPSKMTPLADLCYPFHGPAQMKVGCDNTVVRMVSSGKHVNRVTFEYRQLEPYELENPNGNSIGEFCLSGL

[4] = target: T3, Corticotropin-releasing factor receptor 2/Corticotropin-releasing factor-binding protein; experiment: activators of CRF receptor 2 with binding protein – uHTS hits, confirmation (AID 602473); assay type: functional; conditions: read-out: EC50_Mean
[5] = Luminescence-based cell-based high throughput dose response assay to identify activators of the DAF-12 from the parasite S. stercoralis (ssDAF-12).; assay type: functional
[6] = target: T4, Oxysterols receptor LXR-beta (Homo sapiens, UniProt P55055); experiment: LXR agonists, Gal4 luciferase reporter, dose response, counter-screen for ssDAF-12 agonist project, cell-based, luminescence, HEK293, S. stercoralis campaign (AID 720737); assay type: functional; conditions: read-out: IC50 (the source's name)
T4 sequence (P55055 whole entry): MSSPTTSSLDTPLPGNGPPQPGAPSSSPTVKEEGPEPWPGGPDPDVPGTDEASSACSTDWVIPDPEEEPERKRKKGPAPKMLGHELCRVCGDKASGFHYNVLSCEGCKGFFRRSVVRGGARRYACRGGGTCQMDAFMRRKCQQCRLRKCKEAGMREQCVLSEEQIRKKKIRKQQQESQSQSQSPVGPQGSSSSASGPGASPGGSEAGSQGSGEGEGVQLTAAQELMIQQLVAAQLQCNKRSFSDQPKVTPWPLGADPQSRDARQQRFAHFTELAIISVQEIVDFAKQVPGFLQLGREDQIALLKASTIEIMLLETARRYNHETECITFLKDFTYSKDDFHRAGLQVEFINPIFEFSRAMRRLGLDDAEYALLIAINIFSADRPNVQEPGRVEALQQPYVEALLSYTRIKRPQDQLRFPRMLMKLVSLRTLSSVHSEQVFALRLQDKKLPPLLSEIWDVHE

[7] = target: T5, Protein Tat (Human immunodeficiency virus type 1 group M subtype B (isolate HXB2)(HIV-1), UniProt P04608); assay type: functional;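 further: tat binding to TAR RNA read out by fluorescence polarization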
T5 sequence (P04608 whole entry): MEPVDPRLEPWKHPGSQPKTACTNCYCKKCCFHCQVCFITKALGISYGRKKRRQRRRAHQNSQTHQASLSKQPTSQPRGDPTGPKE

[8] = Luminescence Cell-Based Dose Response to Identify Activators of 5'UTR Stem-Loop Driven Prion Protein mRNA Translation in H4-C Neuroglioblastoma Cells. [Related pubchem assays: 1829 (Project Summary), 1814 (Primary HTS)]; assay type: functional
[9] = Luminescence Cell-Based Dose Confirmation HTS to Identify Activators of 5'UTR Stem-Loop Driven Alpha-Synuclein mRNA Translation in H4 Neuroglioblastoma Cells. [Related pubchem assays: 1829 (Project Summary), 1814 (Primary HTS)]; assay type: functional
[10] = Luminescence Cell-Based Dose Response HTS to Identify Activators of Luciferase Translation or Activity in H4 […] Cells. [Related pubchem assays: 1829 (Project Summary), 1814 (Primary HTS)]; assay type: functional
[11] = tested on: H4; experiment: Luminescence Cell-Based Dose Response HTS to Identify Activators of 5'UTR Stem-Loop Driven Prion Protein mRNA Translation in H4 Neuroglioblastoma Cells. [Related pubchem assays: 1829 (Project Summary), 1814 (Primary HTS)]; assay type: functional; conditions: Homo sapiens
[12] = Luminescence Cell-Based Dose Response to Identify Activators of Luciferase Translation or Activity in H4-C Neuroglioblastoma Cells. [Related pubchem assays: 1829 (Project Summary), 1814 (Primary HTS)]; assay type: functional
[13] = Trypanosoma cruzi growth suppression in host cells – NIH3T3 host cells, beta-gal luminescence, confirmation (AID 2044); assay type: functional, cell-based;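 further: intracellular parasites grown in NIH/3T3 mouse fibroblasts as host cells; luminescent beta-galactosidase reporter signal from transgenic T. cruzi replicating inside host cells; inhibitors lower the luminescence signal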
[14] = NIH3T3 cell viability loss – ATP luminescence, mouse fibroblasts, counter-screen, dose response (AID 2010); assay type: functional, cell-based;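 further: cells exposed to compound for about 90 hours before reading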
[15] = Luminescence Cell-Based Dose Confirmation to Identify Activators of 5'UTR Stem-Loop Driven Alpha-Synuclein mRNA Translation in H4 Neuroglioblastoma Cells. [Related pubchem assays: 1829 (Project Summary), 1814 (Primary HTS)]; assay type: functional

Compound: CCCn1nc(C(=O)Nc2ccc3nc(C)sc3c2)c2ccccc2c1=O
- EC50 [1]: > 300 µM (not active)
- EC50 [2]: > 300 µM (not active)
- IC50 [3]: > 47.1 µM (inactive)
- EC50 [4]: > 53 µM (inactive)
- IC50 [5]: > 67.5 µM (inactive)
- EC50 [6]: > 67.5 µM (inactive)

Compound: O=C(Nc1ccccc1C(=O)NC(Cc1c[nH]c2ccccc12)C(=O)O)c1ccco1 (stereo not given)
- IC50 [7]: > 100 µM (active)

Compound: CCC(=O)Nc1ccc(C(=O)OCc2ccccc2Cl)cc1
- EC50 [8]: 8.13 µM (active)
- EC50 [9]: < 100 nM (active)
- EC50 [10]: 37.7 µM (active)
- EC50 [11]: 11.7 µM (active)
- EC50 [12]: 614 nM (active)
- EC50 [13]: 815 nM (active)
- EC50 [14]: > 60 µM (not active)
- EC50 [15]: 976 nM (active)
